Where two headings read alike, the source gives them in different places.
Columns and labels:
[1] = cited from earlier work
[2] = physchem; settings: pH 7.4
[3] = pH 7.4
[4] = shake flask, pH 7.4, average literature value

SMILES	Literature LogD [1, 4]	logD at 90 min [2]	also measured
CCCSc1ccc2nc(NC(=O)OC)[nH]c2c1 [Albendazole]	3.29	3.41	–
C=CCc1ccccc1OCC(O)CNC(C)C (centres unmarked) [Alprenolol]	0.88	1.03	–
CN(C)CCC=C1c2ccccc2CCc2ccccc21 [Amitriptyline]	2.79	2.87	–
NC(=O)N1c2ccccc2C=Cc2ccccc21 [Carbamazepine]	–	1.59	–
CN(C)CCCN1c2ccccc2Sc2ccc(Cl)cc21 [Chlorpromazine]	3.16	3.26	–
NS(=O)(=O)c1cc(C2(O)NC(=O)c3ccccc32)ccc1Cl (centres unmarked) [Chlorthalidone]	–	0.9	–
CN(C)CCCN1c2ccccc2CCc2ccc(Cl)cc21 [Clomipramine]	3.28	3.46	–
C[C@@H]1C[C@H]2[C@@H]3CCC4=CC(=O)C=C[C@]4(C)[C@@]3(F)[C@@H](O)C[C@]2(C)[C@@]1(O)C(=O)CO [Dexamethason]	–	–	Literature LogD ([1]; pH 7.4): 1.82; CAMDIS FBP LogD [3]: 1.82
O=C(O)Cc1ccccc1Nc1c(Cl)cccc1Cl [Diclofenac]	1.14	1.12	–
CC(C(=O)O)c1ccc(-c2ccccc2)c(F)c1 (centres unmarked) [Flurbiprofen]	0.91	0.8	–
COc1ccc(Cl)cc1C(=O)NCCc1ccc(S(=O)(=O)NC(=O)NC2CCCCC2)cc1 [Glyburide]	2.19	–	–
COC1=CC(=O)C[C@@H](C)[C@]12Oc1c(Cl)c(OC)cc(OC)c1C2=O [Griseofulvin]	–	2.19	–
CC(C)Cc1ccc(C(C)C(=O)O)cc1 (centres unmarked) [Ibuprofen]	1.27	0.97	–
COc1ccc2c(c1)c(CC(=O)O)c(C)n2C(=O)c1ccc(Cl)cc1 [Indomethacin]	0.76	0.87	–
CC(C(=O)O)c1cccc(C(=O)c2ccccc2)c1 (centres unmarked) [Ketoprofen]	−0.23	–	–
CC(CCc1ccccc1)NCC(O)c1ccc(O)c(C(N)=O)c1 (centres unmarked) [Labetalol]	1.09	1.08	–
CCCC(C)(COC(N)=O)COC(N)=O [Meprobamate]	–	–	Literature LogD ([1]; pH 7.4): 0.7; logD [2]: 0.76
CN1CCCCC1CCN1c2ccccc2Sc2ccc([S+](C)[O-])cc21 (centres unmarked) [Mesoridazine]	1.81	1.74	–
COCCc1ccc(OCC(O)CNC(C)C)cc1 (centres unmarked) [Metoprolol]	−0.17	0.06	–
Cc1ncc([N+](=O)[O-])n1CCO [Metronidazole]	−0.07	-0.22	–
COCCOC(=O)C1=C(C)NC(C)=C(C(=O)OC(C)C)C1c1cccc([N+](=O)[O-])c1 (centres unmarked) [Nimodipine]	4.18	3.95	–
CC(=O)Nc1ccc(O)cc1 [Paracetamol]	0.3	–	–
O=C1NC(=O)C(c2ccccc2)(c2ccccc2)N1 [Phenytoin]	2.23	2.32	–
C[C@]12C=CC(=O)C=C1CC[C@@H]1[C@@H]2[C@@H](O)C[C@@]2(C)[C@H]1CC[C@]2(O)C(=O)CO [Prednisolone]	1.45	1.53	–
CCC1(c2ccccc2)C(=O)NCNC1=O [Primidone]	0.91	0.74	–
CC(=O)[C@H]1CC[C@H]2[C@@H]3CCC4=CC(=O)CC[C@]4(C)[C@H]3CC[C@]12C [Progesterone]	–	–	Literature LogD ([1]; pH 7.4): 3.76
C[C@]12CC[C@H]3[C@@H](CCC4=CC(=O)CC[C@@]43C)[C@@H]1CC[C@@H]2O [Testosterone]	–	–	Literature LogD ([1]; pH 7.4): 3.23
Cn1c(=O)c2[nH]cnc2n(C)c1=O [Theophyline]	–	–	Literature LogD ([1]; pH 7.4): −0.02; CAMDIS FBP LogD [3]: −0.16
CC(=O)CC(c1ccccc1)c1c(O)c2ccccc2oc1=O (centres unmarked) [Warfarin]	–	–	Literature LogD ([1]; pH 7.4): 1.12; logD [2]: 0.87
